Data on 8 compounds can be found in patent US20130253022A1 (FOX CHASE CHEMICAL DIVERSITY CENTER, INC., priority 2010, published 2013).

Data set [1] deals with Hippocampal Cultures. Description: Neuroprotection from glutamate excitotoxicity, propidium iodide (cell death) assay. Conditions: Rattus norvegicus, read-out: NP from Glutamate PI EC50. It counts as cell-based. The source says:
(§1) Cell cultures: All compounds are screened with dissociated hippocampal cultures derived from embryonic day 18 rats as the primary test system. With this preparation, primary neurons are used to test for toxicity as well as neuroprotection in a highly relevant experimental system to epilepsy. In brief, hippocampal tissue are obtained commercially through Brain Bits (Springfield, Ill.) and cultures prepared as previously described by Brewer (Brewer, G. J. Serum-free B27/neurobasal medium supports differentiated growth of neurons from the striatum, substantia nigra, septum, cerebral cortex, cerebellum and dentate gyms, J. Neurosci. Res. 1995, 42, 674-683). The hippocampal neurons are platted at low density (10,000 cell/well) in a 96-well format and maintained in serum-free medium consisting of Neurobasal Medium supplemented with B27 and GlutaMAX (Gibco). Pre-coated poly-L-lysine coated plates are used because of the preferential adherence and survival of hippocampal neurons on this matrix support.
(§2) Potent neuroprotection is the distinguishing characteristic that separates this program's anticonvulsants from all other commercial drugs for epilepsy. The experimental details and the rationale for the implemented assays are essential in differentiating these compounds from that of others. The central objective of all neuroprotective assays was their relevancy to excitotoxicity and oxidative stress related to epilepsy. Both the amount of glutamate and hydrogen peroxide used in the assays, as well as the time of treatment and duration of the experiment, were designed to be relevant to epilepsy. Further, all time parameters employed in these studies were empirically determined to be within the limits of reversible toxic events, yet using amounts of glutamate and hydrogen peroxide that were relevant to the disease. In regard to glutamate toxicity, a critical feature was the duration of treatment of the hippocampal neurons. The rational for using a short 5 min treatment with glutamate was based on the observation of Randall and Thayer (Randall, R. D.; Thayer, S. A. Glutamate-induced calcium transient triggers calcium overload and neurotoxicity in rat hippocampal neurons, J. Neurosci. 1992, 12, 1882-1895). […] The rationale is that this intense burst of glutamate and resulting calcium overload is relevant to seizures and therefore was important data to capture in the screening assay. The amount of glutamate (30 μM) employed in our screening was based on the basal levels of glutamate observed in microdialysis measurements of hippocampus from epileptogenic patients (Cavus et al. Decreased hippocampal volume on MRI is associated with increased extracellular glutamate in epilepsy patients, Epilepsia, 2008, 49, 1358-1366). In regard to hydrogen peroxide, the amount employed (10 μM) was detected in the hippocampus of rats after kainate-induced status epilepticus (Jarrett et. al., Mitochondrial DNA damage and impaired base excision repair during epileptogenesis, Neurobiol. Dis. 2008, 30, 130-138). To produce neural damage and death with these amounts of glutamate and hydrogen peroxide, the cultures were changed to a medium with significant depletion of antioxidant components in the defined medium supplement B-27 just prior to treatment with the compounds. This was performed to obtain a significant and reproducible toxic signal in the hippocampal neurons and because loss of antioxidant control may be a component of epileptogenesis (Waldbaum and Patel, Mitochondria, oxidative stress and temporal lobe epilepsy, Epilepsy Res. 2010 88, 23-45; Wu et al., Mitochondrial DNA mutation-elicited oxidative stress, oxidative damage, and altered gene expression in cultured cells of patients with MERRF syndrome, Mol. Neurobiol. 2010, 41, 256-266). Neuroprotection studies with hydrogen peroxide were conducted with cultures that were between day 12 and day 18. Studies of neuroprotection glutamate were conducted between day 19 and day 22. […]

For data set [2], the system named is Hippocampal Cultures. Description: Neuroprotection from glutamate excitotoxicity, CFDA (neuronal viability) assay. It counts as cell-based. The settings on record: Rattus norvegicus, read-out: NP from Glutamate CFDA EC50.
From the text: as §1
as §2, with “compounds.” for “compounds. This was performed to obtain a significant and reproducible toxic signal in the hippocampal neurons and because loss of antioxidant control may be a component of epileptogenesis (Waldbaum and Patel, Mitochondria, oxidative stress and temporal lobe epilepsy, Epilepsy Res. 2010 88, 23-45; Wu et al., Mitochondrial DNA mutation-elicited oxidative stress, oxidative damage, and altered gene expression in cultured cells of patients with MERRF syndrome, Mol. Neurobiol. 2010, 41, 256-266). Neuroprotection studies with hydrogen peroxide were conducted with cultures that were between day 12 and day 18. Studies of neuroprotection glutamate were conducted between day 19 and day 22.”

Data set [3] relates to Hippocampal Cultures. Description: Neuroprotection from hydrogen peroxide (oxidative stress), propidium iodide assay. It counts as cell-based. Conditions: Rattus norvegicus, read-out: NP from Hydrogen Peroxide PI EC50.
From the text: as §1, §2

The subject of data set [4] is Hippocampal Cultures. Description: Neuroprotection from hydrogen peroxide (oxidative stress), CFDA assay. It counts as cell-based. The settings on record: Rattus norvegicus, read-out: NP from Hydrogen Peroxide CFDA EC50.
From the text: as §1, §2

The next data set has as its system hippocampal neurons. Description: Heavy metal toxicity in hippocampal cultures, neuronal viability (CFDA). The settings on record: test concentration of metal ions 10 μM, medium without antioxidants. An excerpt: All compounds were screened with dissociated hippocampal cultures derived from embryonic day 18 rats as the primary test system. With this preparation, primary neurons were used to test for prevention of heavy metal toxicity by the disclosed compounds. In brief, hippocampal tissue was obtained commercially through Brain Bits (Springfield, Ill.) and cultures prepared as previously described (Brewer, G. J. Serum-free B27/neurobasal medium supports differentiated growth of neurons from the striatum, substantia nigra, septum, cerebral cortex, cerebellum and dentate gyms, J. Neurosci. Res., 1995, 42, 674-683). The hippocampal neurons were platted at low density (10,000 cell/well) in a 96-well format and maintained in serum-free medium consisting of Neurobasal Medium supplemented with B27 and GlutaMAX (Gibco). Pre-coated poly-L-lysine coated plates are used because of the preferential adherence and survival of hippocampal neurons on this matrix support.
Heavy metal toxicity is associated with the occurrence of seizures (Mathie et al. Zinc and copper: pharmacological probes and endogenous modulators of neuronal excitability. Pharmacol. Ther. 2006, 111, 567-583). […] To establish the dose-dependency of test agents, day 18 hippocampal cultures were utilized to study the toxicity produced after treatment with the heavy metals and neuroprotection after treatment with test compounds. […] Prior to treatment, the B27/Neural Basal media of the cultures were replaced with B27 neural basal medium without antioxidants for 18 hours. […] Further, the removal of antioxidants in the medium was performed to obtain a significant and reproducible toxic signal for heavy metal treatment of the hippocampal neurons.
Toxicity produced by heavy metals is measured by decreases in neuronal viability. Carboxyfluorescein (CFDA) was used a vital stain for all cell toxicity and neuroprotection studies. With the use of the CytoFluor fluorimeter, the CFDA assay was employed to assess the viability of neurons. CFDA is a dye that becomes fluorescent upon cell entry and cleavage by cytosolic esterases (Petroski and Geller. Selective labeling of embryonic neurons cultures on astrocyte monolayers with 5(6)-carboxyfluorescein diacetate [CFDA]. J. Neurosci. Methods 1994, 52, 23-32). Neuronal specificity is obtained relative to astrocytes because the cleaved dye is extruded extracellularlly by glia with time, while dye in neurons remains intracellular.

Data set [5] deals with MES-induced seizure spread. Description: Maximal electroshock seizure (MES) test, mouse. It counts as in vivo, mice. The procedure:
(§3) Seizure-related assays, Maximal electroshock test: The most definitive assay for anti-seizure activity is the maximal electroshock (MES) test (Swinyard, E. A. Laboratory evaluation of antiepileptic drugs: review of laboratory methods, Epilepsia, 1969, 10, 107-119). […] With both rodent assays, the duration of action is of high importance as well as the potency of the response.
(§4) Methods to measure anticonvulsant activity: All tests were conducted by the Anticonvulsant Screening Program (ASP) of the National Institute of Neurological Disease and Stroke at the National Institutes of Health.
(§5) The Maximal Electroshock Seizure (MES) or Maximal Seizure Pattern Test: The MES is a model for generalized tonic-clonic seizures (Putnam and Merritt. Experimental determination of the anticonvulsant properties of some phenyl derivatives. Science 1937, 85, 113-118). It is highly reproducible with consistent endpoints. The behavioral and electrographic seizures generated in this model are consistent with the human disorder. This model identifies those compounds which prevent seizure spread.
(§6) In the MES test, an electrical stimulus of 0.2 s in duration (50 mA in mice and 150 mA in rat at 60 Hz) is delivered via corneal electrodes primed with an electrolyte solution containing an anesthetic agent. Mice are tested at 30 minutes and 4 hours following doses of 30, 100 and 300 mg/kg of test compound. Test compounds are administered intraperitoneally to the mice. Rats are tested at time intervals between 0.25 and 4 hours following a standard oral dose of 30 mg/kg. Abolition of the hindlimb tonic extensor component indicates the test compound's ability to inhibit MES-induced seizure spread.
(Protection in the maximal electroshock model is a classic sign of anticonvulsant action.)

The subject of data set [6] is MES-induced seizure spread. Description: Maximal electroshock seizure (MES) test, rat. It counts as in vivo, rats. Conditions: po. On the procedure:
as §3, §4, §5, §6

The next data set has as its system 6-Hz psychomotor seizure. As to the kind of experiment: 6 Hz psychomotor seizure test, mouse. The data set is classed as in vivo, mice. Conditions: ip. The procedure: Methods to measure anticonvulsant activity: All tests were conducted by the Anticonvulsant Screening Program (ASP) of the National Institute of Neurological Disease and Stroke at the National Institutes of Health. The 6 Hz Seizure Test: Compounds were further tested in the 6-Hz psychomotor seizure model. (Barton et al. Pharmacological characterization of the 6 Hz psychomotor seizure model of partial epilepsy. Epilepsy Res. 2001, 47, 217-227). This model is used to detect […] that may be useful for the treatment of therapy-resistant partial seizures. For this test, an alternative electrical stimulation paradigm is used with a low frequency (6 Hz), long duration (3 seconds) corneal stimulation. The seizure evoked by this low frequency stimulation is characterized by immobility, forelimb clonus, Straub tail and facial automatisms. Mice are tested from 15 min to 4 hours following an intraperitoneal dose of 100 mg/kg. Abolition of the clonic seizures indicates the ability of a compound to prevent partial or psychomotor seizures.

For data set [7], the system named is pentylenetetrazol-induced clonic seizures. Description: Subcutaneous pentylenetetrazol seizure test (scPTZ), mouse. It counts as in vivo, Carworth Farms No. 1 mice. Conditions: pentylenetetrazol 85 mg/kg s.c., test compound intraperitoneally, read-out: Mouse PTZ ED50, s.c. On the procedure:
Methods to measure anticonvulsant activity: All tests were conducted by the Anticonvulsant Screening Program (ASP) of the National Institute of Neurological Disease and Stroke at the National Institutes of Health. The subcutaneous pentylenetetrazol (metrazol) seizure test (scPTZ). This model primarily identifies compounds that raise seizure threshold. The behavioral seizure produced is not typical of absence epilepsy but clonic in nature. With some minor exceptions, the pharmacological profile of the scPTZ seizure model is consistent with the human condition. The scPTZ test utilizes a dose of pentylenetetrazol (85 mg/kg in Carworth Farms No. 1 mice and 70 mg/kg in Sprague-Dawley rats). This produces clonic seizures lasting for a period of at least five seconds in 97 percent of animals tested. At the anticipated time of testing the convulsant is administered subcutaneously. The test compound is administered intraperitoneally in mice and orally in rats. Animals are observed over a 30 minute period. Absence of clonic spasms in the observed time period indicates a compound's ability to abolish the effect of pentylenetetrazol on seizure threshold (Swinyard E A. Laboratory evaluation of antiepileptic drugs: review of laboratory methods. Epilepsia, 1969, 10, 107-119).

[8] abbreviates: 30 μM glutamate 5 min, hippocampal cultures, 4 hour test period.
The mark [9] stands for this setting: 10 μM hydrogen peroxide, hippocampal cultures, 4 hour test period.

Usually EC50 stands for the midpoint of the concentration-response curve. In general, ED50 refers to the dose at which the effect has come halfway, by size or by number of responders.

Each structure is given as a SMILES string.

With `NS(=O)(=O)NCC(F)c1ccccc1F` (stereo not drawn) [Example 3, 2-Fluoro-2-(2-fluoro-phenyl)-ethylsulfamide], the EC50 amounted to 0.1 nM with Hippocampal Cultures [1], 3 nM in the data set with Hippocampal Cultures [2], 0.01 nM in the data set on Hippocampal Cultures [3] (4 h) and 0.01 nM in the data set with Hippocampal Cultures [4] (4 h).
As to `COc1ccccc1C(F)(F)CNS(N)(=O)=O` [Example 4, 2,2-Difluoro-2-(2-methoxyphenyl)-ethyl-1-sulfamide], the EC50 with Hippocampal Cultures [1] amounted to 1 nM; in the data set on Hippocampal Cultures [3] (4 h) it was 1 nM; with Hippocampal Cultures [4] (4 h) it was 0.1 nM.
For the compound `CC(=O)[O-].CC(=O)[O-].O.[Cu+2]` [Copper Acetate monohydrate], the “Loss of neuronal viability from metal” value in the data set on hippocampal neurons was determined as 47%.
In the case of `NS(=O)(=O)NCC(F)(F)c1ccccc1` [Example 5, 2,2-difluoro-2-phenyl-ethyl-1-sulfamide], the EC50 in the data set with Hippocampal Cultures [1] (setting [8]) was 0.1 nM; in the data set with Hippocampal Cultures [2] (setting [8]) it was 0.1 nM; in the data set on Hippocampal Cultures [3] (setting [9]), 0.03 nM; in the data set with Hippocampal Cultures [4] (setting [9]), 0.1 nM. In addition, the “Duration of action MES” value in [5] (Mouse Maximal Electroshock (MES) test at 100 mg/kg, i.p.) is 4 h. The 50% effective dose (ED50) in [5] (ip, mouse) was found to be 49 mg/kg; in [6] it was 26 mg/kg; with 6-Hz psychomotor seizure, 16 mg/kg; in data set [7] it was 41 mg/kg.
Take `O.O.O.O.O.O.[Cl][Ni][Cl]` [Nickel Chloride hexahydrate]: the “Loss of neuronal viability from metal” value in the data set with hippocampal neurons is 33%.
In the case of `NS(=O)(=O)NCC(F)(F)c1csc2ccccc12` [Example 6, 2-Benzo[b]thiophen-3-yl-2,2-difluoro-ethyl sulfamide], the half-maximal effective concentration (EC50) with Hippocampal Cultures [1] was determined as 0.1 nM; with Hippocampal Cultures [2], 0.1 nM; in the data set with Hippocampal Cultures [3] (4 h), 1 nM; in the data set on Hippocampal Cultures [4] (4 h), 0.1 nM.
Regarding `O.O.O.O.O.O.O=S(=O)([O-])[O-].[Fe+2]` [Iron sulfate hexahydrate], the “Loss of neuronal viability from metal” value with hippocampal neurons was found to be 31%.
Same read-out and setting: the same measure for `O.O.O.O.O.O.[Cl-].[Cl-].[Co+2]` [Cobalt Chloride hexahydrate]: 36%.
